From PubChem BioAssay AID330 (DTP/NCI, 2004)
Where “and” joins values, the source holds several entries; their conditions need not be identical. Identical values can stand only once. Inconclusive results and toxic doses are left out.

Test system: P388 leukemia ip, CD2F1 mice, survival T/C
Assay: NCI In Vivo Anticancer Drug Screen. Data for tumor model P388 Leukemia (intraperitoneal) in CD2F1 (CDF1) mice
Conditions: endpoint: median survival time, higher = longer survival
How it was run: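 Mice carrying the transplanted tumor received test compound or vehicle. Survival was recorded in each group, and the value is the treated-group measurement divided by that of the vehicle-treated control group.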

[1] = dose: 60.0 mg/kg/injection, schedule: Q01DX005 (ip), vehicle: saline with Tween-80
[2] = dose: 50.0 mg/kg/injection, schedule: Q01DX005 (ip), vehicle: Klucel (hydroxypropylcellulose) (HPC)
[3] = dose: 100.0 mg/kg/injection, schedule: Q01DX005 (ip), vehicle: Klucel (hydroxypropylcellulose) (HPC)
[4] = dose: 200.0 mg/kg/injection, schedule: Q01DX005 (ip), vehicle: Klucel (hydroxypropylcellulose) (HPC)
[5] = dose: 50.0 mg/kg/injection, schedule: Q01DX009 (ip), vehicle: saline with Tween-80
[6] = dose: 100.0 mg/kg/injection, schedule: Q01DX009 (ip), vehicle: saline with Tween-80
[7] = dose: 200.0 mg/kg/injection, schedule: Q01DX009 (ip), vehicle: saline with Tween-80
[8] = dose: 120.0 mg/kg/injection, schedule: Q01DX005 (ip), vehicle: saline with Tween-80
[9] = dose: 240.0 mg/kg/injection, schedule: Q01DX005 (ip), vehicle: saline with Tween-80
[10] = dose: 6.25 mg/kg/injection, schedule: Q01DX009 (ip), vehicle: saline
[11] = dose: 12.5 mg/kg/injection, schedule: Q01DX009 (ip), vehicle: saline
[12] = dose: 25.0 mg/kg/injection, schedule: Q01DX009 (ip), vehicle: saline
[13] = dose: 100.0 mg/kg/injection, schedule: Q01DX009 (ip), vehicle: saline

With CN(C)CC(CN(C)C)C(=O)c1ccc(Cl)c(Cl)c1 the T/C (dose: 12.5 mg/kg/injection, schedule: Q01DX005 (ip), vehicle: saline) was 108 % of control, the T/C (dose: 25.0 mg/kg/injection, schedule: Q01DX005 (ip), vehicle: saline) was 105 % of control and the T/C (dose: 50.0 mg/kg/injection, schedule: Q01DX005 (ip), vehicle: saline) was 100 % of control and 104 % of control.

In the case of Cc1cc(N=[N+]=[N-])c2cc(F)ccc2n1, the T/C (dose: 30.0 mg/kg/injection, schedule: Q01DX005 (ip), vehicle: saline with Tween-80) is reported as 92 % of control and the T/C [1] is reported as 90 % of control and 92 % of control.

With [Br][Sn]([Br])([CH2][Sn]([Br])([Br])[c]1ccccc1)[c]1ccccc1 the T/C [2] was 97 % of control, the T/C [3] was 99 % of control and the T/C [4] was 89 % of control.

In the case of O=C(CCCCCCCCc1ccc(O)c(O)c1)c1c(O)cccc1O, the T/C (dose: 3.0 mg/kg/injection, schedule: Q01DX009 (ip), vehicle: Klucel (hydroxypropylcellulose) (HPC)) is reported as 101 % of control, the T/C (dose: 12.0 mg/kg/injection, schedule: Q01DX009 (ip), vehicle: Klucel (hydroxypropylcellulose) (HPC)) is reported as 108 % of control and the T/C (dose: 24.0 mg/kg/injection, schedule: Q01DX009 (ip), vehicle: Klucel (hydroxypropylcellulose) (HPC)) is reported as 101 % of control.

With CC1CN=C(c2ccc(NC(=O)c3cccc(C(=O)Nc4ccc(C5=NCC(C)N5)cc4)c3)cc2)N1 (centres undefined) the T/C (dose: 12.0 mg/kg/injection, schedule: Q01DX010 (ip), vehicle: saline) was 118 % of control, the T/C (dose: 18.0 mg/kg/injection, schedule: Q01DX010 (ip), vehicle: saline) was 154 % of control and the T/C (dose: 27.0 mg/kg/injection, schedule: Q01DX010 (ip), vehicle: saline) was 159 % of control. For the same compound, the T/C (dose: 40.0 mg/kg/injection, schedule: Q01DX010 (ip), vehicle: saline) was 172 % of control.

For [S]=[W]=[S], the T/C [5] was 98 % of control, the T/C [6] was 102 % of control and the T/C [7] was 96 % of control.

C=C1CC(C2OCOC3COCOC32)OC1=O (centres undefined) was tested, and the T/C (dose: 60.0 mg/kg/injection, schedule: Q01DX005 (ip), vehicle: Klucel (hydroxypropylcellulose) (HPC)) was 104 % of control and the T/C (dose: 120.0 mg/kg/injection, schedule: Q01DX005 (ip), vehicle: Klucel (hydroxypropylcellulose) (HPC)) was 111 % of control.

With S=c1o[nH]c(-c2ccccc2)c1C=Nc1ccccc1 the T/C [1] was 102 % of control, the T/C [8] was 93 % of control and the T/C [9] was 94 % of control.

Cc1ccc(C(=O)CCN(C)C)cc1 was tested, and the T/C [10] was 105 % of control, the T/C [11] was 100 % of control and the T/C [12] was 96 % of control. The T/C (dose: 50.0 mg/kg/injection, schedule: Q01DX009 (ip), vehicle: saline) was 98 % of control and 106 % of control and the T/C [13] was 107 % of control.

In the case of OC12CC3CC(CN1)CC(C3)C2, the T/C [2] is reported as 109 % of control, the T/C [3] is reported as 99 % of control and the T/C [4] is reported as 95 % of control.

In the case of O=C1C(c2ccccc2)=S=C2C=Cc3ccccc3N12, the T/C (dose: 100.0 mg/kg/injection, schedule: Q01DX001 (ip), vehicle: saline with Tween-80) is reported as 109 % of control, the T/C (dose: 200.0 mg/kg/injection, schedule: Q01DX001 (ip), vehicle: saline with Tween-80) is reported as 111 % of control and the T/C (dose: 400.0 mg/kg/injection, schedule: Q01DX001 (ip), vehicle: saline with Tween-80) is reported as 116 % of control.

In the case of O=C(CC(=NCCCN=C(CC(=O)c1ccccc1)c1ccccc1)c1ccccc1)c1ccccc1, the T/C [5] is reported as 96 % of control, the T/C [6] is reported as 100 % of control and the T/C [7] is reported as 100 % of control.

For Cc1cc[n+](C)c(-c2ccccc2)c1, the T/C [10] was 90 % of control, the T/C [11] was 104 % of control and the T/C [12] was 113 % of control.

With C=C1CCC2C(C)(CCC(OCCCCC)C2(C)C(=O)OC)C1CCc1ccoc1 (centres undefined) the T/C (dose: 8.25 mg/kg/injection, schedule: Q01DX005 (ip), vehicle: Klucel + Tween-80) was 100 % of control, the T/C (dose: 16.5 mg/kg/injection, schedule: Q01DX005 (ip), vehicle: Klucel + Tween-80) was 102 % of control and the T/C (dose: 33.0 mg/kg/injection, schedule: Q01DX005 (ip), vehicle: Klucel + Tween-80) was 100 % of control. The T/C (dose: 66.0 mg/kg/injection, schedule: Q01DX005 (ip), vehicle: Klucel + Tween-80) was 94 % of control.

COC(=O)C(CSC1CCCCC1=O)NC(C)=O (centres undefined) was tested, and the T/C (dose: 25.0 mg/kg/injection, schedule: Q01DX005 (ip), vehicle: Klucel (hydroxypropylcellulose) (HPC)) was 93 % of control, the T/C [2] was 95 % of control and the T/C [3] was 101 % of control.

With CC(CN)OCc1ccccc1 (centres undefined) the T/C (dose: 12.5 mg/kg/injection, schedule: Q04DX003 (ip), vehicle: saline) was 95 % of control, the T/C (dose: 25.0 mg/kg/injection, schedule: Q04DX003 (ip), vehicle: saline) was 100 % of control and the T/C (dose: 50.0 mg/kg/injection, schedule: Q04DX003 (ip), vehicle: saline) was 100 % of control.

For C=C1C(=O)O[C@H]2C[C@@H]3O[C@@H]3[C@@H]12, the T/C (dose: 1.56 mg/kg/injection, schedule: Q01DX009 (ip), vehicle: water) was 98 % of control, the T/C (dose: 3.13 mg/kg/injection, schedule: Q01DX009 (ip), vehicle: water) was 100 % of control and the T/C (dose: 6.25 mg/kg/injection, schedule: Q01DX009 (ip), vehicle: water) was 100 % of control. The T/C (dose: 12.5 mg/kg/injection, schedule: Q01DX009 (ip), vehicle: water) was 109 % of control.

With C=CN1CCCC1=O the T/C (dose: 100.0 mg/kg/injection, schedule: Q04DX003 (ip), vehicle: saline) was 104 % of control, the T/C (dose: 200.0 mg/kg/injection, schedule: Q04DX003 (ip), vehicle: saline) was 100 % of control and the T/C (dose: 0.25 % in 0.5 ml injection vol, schedule: Q01DX009 (ip), vehicle: water) was 100 % of control. The T/C (dose: 400.0 mg/kg/injection, schedule: Q04DX003 (ip), vehicle: saline) was 100 % of control, the T/C (dose: 0.5 % in 0.5 ml injection vol, schedule: Q01DX009 (ip), vehicle: water) was 107 % of control and the T/C (dose: 1.0 % in 0.5 ml injection vol, schedule: Q01DX009 (ip), vehicle: water) was 100 % of control and 102 % of control. The T/C (dose: 2.0 % in 0.5 ml injection vol, schedule: Q01DX009 (ip), vehicle: water) was 100 % of control and 98 % of control, the T/C (dose: 4.0 % in 0.5 ml injection vol, schedule: Q01DX009 (ip), vehicle: water) was 102 % of control and 104 % of control and 108 % of control and the T/C (dose: 8.0 % in 0.5 ml injection vol, schedule: Q01DX009 (ip), vehicle: water) was 102 % of control and 109 % of control and 92 % of control. For the same compound, the T/C (dose: 16.0 % in 0.5 ml injection vol, schedule: Q01DX009 (ip), vehicle: water) was 100 % of control and 103 % of control and 95 % of control.

In the case of O=C(NCc1ccccc1)c1cccnc1, the T/C [13] is reported as 100 % of control, the T/C (dose: 200.0 mg/kg/injection, schedule: Q01DX009 (ip), vehicle: saline) is reported as 98 % of control and the T/C (dose: 400.0 mg/kg/injection, schedule: Q01DX009 (ip), vehicle: saline) is reported as 100 % of control.

With CC1(C)C(=O)/C(=C/c2ccccc2N)Cc2ccccc21 the T/C [2] was 90 % of control, the T/C [3] was 107 % of control and the T/C [4] was 102 % of control.

With c1ccc2cc3c(cc2c1)Cn1c-3nc2ccccc21 the T/C (dose: 200.0 mg/kg/injection, schedule: Q04DX003 (ip), vehicle: saline with Tween-80) was 92 % of control and the T/C (dose: 400.0 mg/kg/injection, schedule: Q04DX003 (ip), vehicle: saline with Tween-80) was 100 % of control.

C/C(=N\NC(=S)SCc1ccccc1)c1ccccn1 was tested, and the T/C (dose: 3.12 mg/kg/injection, schedule: Q01DX009 (ip), vehicle: Klucel (hydroxypropylcellulose) (HPC)) was 108 % of control and the T/C (dose: 6.25 mg/kg/injection, schedule: Q01DX009 (ip), vehicle: Klucel (hydroxypropylcellulose) (HPC)) was 103 % of control and 110 % of control.

In the case of O=c1c(CS(=O)(=O)c2ccccc2)c(-c2ccccc2)c1=O, the T/C (dose: 100.0 mg/kg/injection, schedule: Q04DX002 (ip), vehicle: saline with Tween-80) is reported as 104 % of control, the T/C (dose: 200.0 mg/kg/injection, schedule: Q04DX002 (ip), vehicle: saline with Tween-80) is reported as 104 % of control and the T/C (dose: 400.0 mg/kg/injection, schedule: Q04DX002 (ip), vehicle: saline with Tween-80) is reported as 97 % of control.

In the case of C=C(C(=C)n1nnc(C(=O)OC)c1C(=O)OC)n1nnc(C(=O)OC)c1C(=O)OC, the T/C [1] is reported as 102 % of control, the T/C [8] is reported as 101 % of control and the T/C [9] is reported as 93 % of control.

With COC(=O)C1C(=O)CC2N(C)C1C(C)(C)C2(C)C (centres undefined) the T/C [8] was 150 % of control.

In the case of O=C(O)CSc1cc2c3ccccc3sc2c2ccccc12, the T/C (dose: 40.0 mg/kg/injection, schedule: Q01DX005 (ip), vehicle: Klucel (hydroxypropylcellulose) (HPC)) is reported as 100 % of control, the T/C (dose: 80.0 mg/kg/injection, schedule: Q01DX005 (ip), vehicle: Klucel (hydroxypropylcellulose) (HPC)) is reported as 107 % of control and the T/C (dose: 160.0 mg/kg/injection, schedule: Q01DX005 (ip), vehicle: Klucel (hydroxypropylcellulose) (HPC)) is reported as 106 % of control.
